Assay results published in patent US20060205692A1, “1,1-and 1,2-Bisphosphonates as apoliprotein e modulators” (priority 2002, published 2006).

System: ApoE
Assay: apoE secretion by PMA-differentiated THP-1 cells, apoE quantified by ELISA
Type: cell-based, human
Settings: 3 days; for percent change in apoE secretion versus control at 25 µM / percent change in apoE secretion versus control at 50 µM / percent change in apoE secretion versus control at 100 µM: Homo sapiens, THP-1, 72 h
From the text: The bisphosphonate compounds of the invention can modulate (increase or decrease) apoE levels in plasma and in tissues. The activities of the compounds can be determined in an in vitro cell assay comprising determining the modulatory effect of the test compound on the secretion of apoE by an apoE secreting cell line (e.g., a monocyte-macrophage cell line such as the THP-1 cell line, a liver derived cell line such as the HepG2 cell line, an intestinal derived cell line such as the CaCo2 cell line or a brain derived cell line such as the astrocytoma CCF-STTG1 cell line).
THP-1 cell line (ATCC TIB-202) are cultured in RPMI 1640 (with 2 mM of L-glutamine and 2 g/l of glucose, Invitrogen) supplemented with 2 g/l of sodium hydrogen carbonate (Fluka), 10 U/ml of penicillin, 10 μg/ml of streptomycin (Penicillin-Streptomycin, Invitrogen), 20 μM of 2-mercaptoethanol (Fluka) and 10% FCS (Amimed). Cells are incubated at 37° C. and 5% CO2.
Cells are seeded in 24 well tissue culture plates (Falcon), 2×10^5 cells in 500 μl of culture medium per well or 6 well plates for RT-PCR purpose, 1×10^6 cells in 2.5 ml of medium. PMA (Phorbol 12-myristate 13-acetate, Alexis), (stock in DMSO (Fluka) at 1 mg/ml) and other compounds are diluted in ethanol and added to the cells at an ethanol final concentration not exceeding 1%. Same volume of ethanol is added in controls. Plates are incubated for 3 days at 37° C. and 5% CO2 to allow cell differentiation and apoE secretion.
Medium contained in the wells is harvested and centrifuged 5 min at 1200 rpm. Supernatants are store at −20° C. until apoE quantification. The cell pellets are resuspended in PBS and counted with a ZI Coulter Counter. After a wash with PBS, adherent cells in the well bottoms are detached with trypsin-EDTA solution 10× (Invitrogen) diluted in PBS. The reaction is stopped with the addition of culture medium and the detached cells are counted.
ApoE was quantified by ELISA. 96 well plates (Costar) are coated with 5% of gelatine (from porcine skin, Fluka) in carbonate-bicarbonate buffer (Sigma) for 1 hour at 37° C. After removing the coating solution, 100 μl of THP-1 supernatant are added per well, diluted 5 times in buffer (PBS, 1% Top-Block (Juro), 0.1% Tween 20 (Fluka)). The incubation last 1 hour at 37° C., then the wells are washed 3 times with 200 μl of buffer. Plates are incubated for 1 hour at 37° C. with continuous stirring with the primary antibody (goat anti-human apoE IgG, Calbiochem) at a 10000-time dilution in buffer, 100 μl per well. After 3 washes, plates are incubated with the secondary antibody (rabbit anti-goat-IgG peroxidase conjugated, Sigma) diluted 5000 times, 100 μl per well, at 37° C. with shaking. Then the wells are washed 5 more times and the detection is achieved by adding 100 μl per well of o-phenylenediamine dihydrochloride (Sigma) and incubated for 15-20 minutes with shaking at room temperature. When the appropriated colour is reached, the reaction is stopped by adding 50 μl per well of 3 M sulfuric acid (Fluka) with shaking for 1 minute at room temperature. The absorbance is read at 492 nm versus 620 nm with a microplate photometer (Anthos Reader 2001).

Compound | % ApoE Change (compound 25 μM, 1.25 nM PMA) | % ApoE Change (compound 25 μM, 2.5 nM PMA) | % ApoE Change (compound 50 μM, 1.25 nM PMA) | % ApoE Change (compound 50 μM, 2.5 nM PMA) | % ApoE Change (compound 100 μM, 1.25 nM PMA) | % ApoE Change (compound 100 μM, 2.5 nM PMA) | percent change in apoE secretion versus control at 25 µM (compound 25 μM, 2.5 nM PMA) | percent change in apoE secretion versus control at 50 µM (compound 50 μM, 2.5 nM PMA) | percent change in apoE secretion versus control at 100 µM (compound 100 μM, 2.5 nM PMA) | percent change in apoE secretion versus control at 25 µM (compound 25 μM, 1.25 nM PMA) | percent change in apoE secretion versus control at 50 µM (compound 50 μM, 1.25 nM PMA) | percent change in apoE secretion versus control at 100 µM (compound 100 μM, 1.25 nM PMA)
CCOP(=O)(OCC)C(c1ccc(OCCc2ccccn2)cc1)P(=O)(OCC)OCC [Tetraethyl 1-[4-(2-pyridin-2-yl-ethoxy)-phenyl]-methylidene-1,1-bisphosphonate] | 57% | 38% | 133% | 73% | 363% | 145% |  |  |  |  |  | 
CCOP(=O)(CC(c1ccc(OCc2ccccn2)cc1)P(=O)(OCC)OCC)OCC (centres unmarked) [Tetraethyl 1-[4-(pyridin-2-yl-methoxy)-phenyl]-ethylidene-1,2-bisphosphonate] |  | 152% |  | 158% |  | 289% |  |  |  |  |  | 
CCOP(=O)(OCC)C(c1ccc(OCc2ccccn2)cc1)P(=O)(OCC)OCC [Tetraethyl 1-[4-(pyridin-2-yl-methoxy)-phenyl]-methylidene-1,1-bisphosphonate] | 16% | 96% | 146% | 192% | 443% | 574% |  |  |  |  |  | 
CCOP(=O)(OCC)C(c1ccc(OCCCN2C(=O)c3ccccc3C2=O)cc1)P(=O)(OCC)OCC [Tetraethyl 1-[4-(3-N-phthalimido-propoxy)-phenyl]-methylidene-1,1-bisphosphonate] |  |  |  |  |  |  | 352% | 405% | 482% |  |  | 
CCOP(=O)(OCC)C(c1ccc(O)cc1)P(=O)(OCC)OCC [Tetraethyl 1-(4-hydroxy-phenyl)-methylidene-1,1-bisphosphonate] |  |  |  |  |  |  | -3% | -9% | 60% | -13% | 26% | 125%
CCOc1ccc(C(CP(=O)(OCC)OCC)P(=O)(OCC)OCC)cc1 (centres unmarked) [Tetraethyl 1-(4-ethoxyphenyl)-ethylidene-1,2-bisphosphonate] | −16% | 5% | −12% | 4% | 36% | 54% |  |  |  |  |  | 
CCOP(=O)(CC(c1cccc(OCCc2ccccn2)c1)P(=O)(OCC)OCC)OCC (centres unmarked) [Tetraethyl 1-[3-(2-pyridin-2-yl-ethoxy)-phenyl]-ethylidene-1,2-bisphosphonate] |  |  |  |  |  |  | 110% | 124% | 206% | 31% | 51% | 274%
CCOP(=O)(OCC)C(c1ccc(OCCN2CCCCC2)cc1)P(=O)(OCC)OCC [Tetraethyl 1-[4-(2-N-piperidino-ethoxy)-phenyl]-methylidene-1,1-bisphosphonate] | −22% | −2% | 6% | 0% | 65% | 33% |  |  |  |  |  | 
CCOP(=O)(CC(c1ccc(OCCN(C)c2ccccn2)cc1)P(=O)(OCC)OCC)OCC (centres unmarked) [Tetraethyl 1-{4-[2-(methyl-pyridin-2-yl-amino)ethoxy]-phenyl}-ethylidene-1,2-bisphosphonate] |  |  |  |  |  |  | 110% | 124% | 206% | 77% | 202% | 569%
CCOP(=O)(CC(c1ccc(OCCCN2C(=O)c3ccccc3C2=O)cc1)P(=O)(OCC)OCC)OCC (centres unmarked) [Tetraethyl 1-[4-(3-N-phthalimidopropoxy)phenyl]-ethylidene-1,2-bisphosphonate] |  |  |  |  |  |  | 644% | 942% |  |  |  | 
